Measurements from PubChem BioAssay AID256 (DTP/NCI, 2004).
Toxic doses and inconclusive results are not listed. The calls were made as follows: active = survival T/C of 150% or more; inactive = T/C below 125% in these data.

Test system: CD2F1 mice, L1210 leukemia ip, survival T/C
Experiment: NCI In Vivo Anticancer Drug Screen. Data for tumor model L1210 Leukemia (intraperitoneal) in CD2F1 (CDF1) mice
Conditions: higher = longer survival
In short: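 Mice carrying a transplanted tumor received test compound or vehicle alone. The value is the measurement in the treated group divided by that in the vehicle-treated control group.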

[1] = endpoint: mean survival time, dose: 100.0 mg/kg/injection, schedule: Q01DX001 (ip), vehicle: saline
[2] = endpoint: mean survival time, dose: 200.0 mg/kg/injection, schedule: Q01DX001 (ip), vehicle: saline
[3] = endpoint: mean survival time, dose: 400.0 mg/kg/injection, schedule: Q01DX001 (ip), vehicle: saline
[4] = endpoint: mean survival time, dose: 100.0 mg/kg/injection, schedule: Q01DX009 (ip), vehicle: saline with Tween-80
[5] = endpoint: mean survival time, dose: 200.0 mg/kg/injection, schedule: Q01DX009 (ip), vehicle: saline with Tween-80
[6] = endpoint: mean survival time, dose: 400.0 mg/kg/injection, schedule: Q01DX009 (ip), vehicle: saline with Tween-80
[7] = endpoint: mean survival time, dose: 100.0 mg/kg/injection, schedule: Q04DX003 (ip), vehicle: saline with Tween-80
[8] = endpoint: mean survival time, dose: 200.0 mg/kg/injection, schedule: Q04DX003 (ip), vehicle: saline with Tween-80
[9] = endpoint: mean survival time, dose: 400.0 mg/kg/injection, schedule: Q04DX003 (ip), vehicle: saline with Tween-80
[10] = endpoint: mean survival time, dose: 100.0 mg/kg/injection, schedule: Q01DX001 (ip), vehicle: saline with Tween-80
[11] = endpoint: mean survival time, dose: 200.0 mg/kg/injection, schedule: Q01DX001 (ip), vehicle: saline with Tween-80
[12] = endpoint: mean survival time, dose: 400.0 mg/kg/injection, schedule: Q01DX001 (ip), vehicle: saline with Tween-80
[13] = endpoint: mean survival time, dose: 100.0 mg/kg/injection, schedule: Q04DX002 (ip), vehicle: saline with Tween-80
[14] = endpoint: mean survival time, dose: 200.0 mg/kg/injection, schedule: Q04DX002 (ip), vehicle: saline with Tween-80
[15] = endpoint: mean survival time, dose: 400.0 mg/kg/injection, schedule: Q04DX002 (ip), vehicle: saline with Tween-80
[16] = endpoint: mean survival time, dose: 50.0 mg/kg/injection, schedule: Q01DX009 (ip), vehicle: saline with Tween-80

Measured: T/C

CCOC(=O)C=C(c1ccc(OC)c(OC)c1)c1ccc(OC)c(OC)c1
inactive: [1] 108 % of control | [2] 100 % of control | [3] 102 % of control

N#CCCN(CCCN1CCOCC1)C(=S)Nc1ccc(Cl)cc1
inactive: [4] 104 % of control | [5] 104 % of control | [6] 93 % of control

C=CCN(CC=C)P(=O)(N1CC1C)N1CC1C (stereo not drawn)
inactive: endpoint: mean survival time, dose: 1.0 mg/kg/injection, schedule: Q01DX009 (ip), vehicle: saline 122 % of control | endpoint: mean survival time, dose: 2.5 mg/kg/injection, schedule: Q01DX001 (ip), vehicle: saline 115 % of control

C=C/C(C)=N/Nc1ccc([N+](=O)[O-])cc1[N+](=O)[O-]
inactive: [7] 94 % of control | [8] 95 % of control | [9] 95 % of control

CCCCCCCCNCCNCCCCCCCC
inactive: endpoint: mean survival time, dose: 3.75 mg/kg/injection, schedule: Q01DX009 (ip), vehicle: Klucel (hydroxypropylcellulose) (HPC) 95 % of control | endpoint: mean survival time, dose: 7.5 mg/kg/injection, schedule: Q01DX009 (ip), vehicle: Klucel (hydroxypropylcellulose) (HPC) 95 % of control | endpoint: mean survival time, dose: 15.0 mg/kg/injection, schedule: Q01DX009 (ip), vehicle: Klucel (hydroxypropylcellulose) (HPC) 87 % of control

CC(=O)C1CCOC1=O (stereo not drawn)
inactive: endpoint: mean survival time, dose: 100.0 mg/kg/injection, schedule: Q04DX003 (ip), vehicle: saline 96 % of control | endpoint: mean survival time, dose: 200.0 mg/kg/injection, schedule: Q04DX003 (ip), vehicle: saline 104 % of control | endpoint: mean survival time, dose: 400.0 mg/kg/injection, schedule: Q04DX003 (ip), vehicle: saline 98 % of control

ON=C1c2c(ccc3ccccc23)-c2ccc3ccccc3c21
inactive: [10] 95 % of control | [4] 98 % of control | [11] 96 % of control | [5] 95 % of control | [12] 102 % of control | [6] 93 % of control

Cn1c(=O)[nH]c(=O)c2cc(Cl)ccc21
inactive: [13] 101 % of control | [14] 106 % of control | [15] 121 % of control

CCOC(=O)NC(=O)O
inactive: [1] 114 % of control | [2] 103 % of control | [3] 97 % of control

C#CCOCC(O)C[As](=O)(O)c1cccc(Cl)c1 (stereo not drawn)
inactive: endpoint: mean survival time, dose: 6.25 mg/kg/injection, schedule: Q04DX003 (ip), vehicle: saline 104 % of control

CC(C)(CC(=O)O)CC(=O)O.[NH-]C1CCCCC1[NH-].[Pt+2]
inactive: endpoint: median survival time, dose: 3.12 mg/kg/injection, schedule: Q04DX003 (ip), vehicle: saline 87 % of control | endpoint: median survival time, dose: 6.25 mg/kg/injection, schedule: Q04DX003 (ip), vehicle: saline 102 % of control | endpoint: median survival time, dose: 12.5 mg/kg/injection, schedule: Q04DX003 (ip), vehicle: saline 98 % of control | endpoint: median survival time, dose: 25.0 mg/kg/injection, schedule: Q04DX003 (ip), vehicle: saline 108 % of control | endpoint: median survival time, dose: 50.0 mg/kg/injection, schedule: Q04DX003 (ip), vehicle: saline 101 % of control | endpoint: median survival time, dose: 100.0 mg/kg/injection, schedule: Q04DX003 (ip), vehicle: saline 103 % of control | endpoint: median survival time, dose: 200.0 mg/kg/injection, schedule: Q04DX003 (ip), vehicle: saline 112 % of control

O=C(CNCc1ccccc1)c1ccccc1
inactive: [7] 94 % of control | [8] 96 % of control | [9] 93 % of control

Cc1cc(Cc2cc(C)c(O)c(C)c2)cc(C)c1O
inactive: [16] 94 % of control | [4] 100 % of control | [5] 97 % of control

Cc1cc(=O)cc(CC(=O)C(=O)O)o1
inactive: endpoint: mean survival time, dose: 100.0 mg/kg/injection, schedule: Q01DX009 (ip), vehicle: saline sonified 101 % of control | [7] 97 % of control | [8] 95 % of control | [9] 97 % of control

CC1CC(=O)C2CC(Cl)CCC2(C)C1C (stereo not drawn)
inactive: endpoint: mean survival time, dose: 25.0 mg/kg/injection, schedule: Q01DX009 (ip), vehicle: saline with Tween-80 97 % of control | [16] 90 % of control | [4] 94 % of control

COC1OC2C(CO)OC(n3ncc4c3ncn3cnnc43)C2O1 (stereo not drawn)
inactive: endpoint: mean survival time, dose: 12.5 mg/kg/injection, schedule: Q01DX005 (ip), vehicle: distilled water + Tween-80 96 % of control | endpoint: mean survival time, dose: 25.0 mg/kg/injection, schedule: Q01DX005 (ip), vehicle: distilled water + Tween-80 96 % of control | endpoint: mean survival time, dose: 50.0 mg/kg/injection, schedule: Q01DX005 (ip), vehicle: distilled water + Tween-80 92 % of control | endpoint: mean survival time, dose: 100.0 mg/kg/injection, schedule: Q01DX005 (ip), vehicle: distilled water + Tween-80 96 % of control | endpoint: mean survival time, dose: 200.0 mg/kg/injection, schedule: Q01DX005 (ip), vehicle: distilled water + Tween-80 96 % of control

Cc1ccc2scc3c4ccccc4nc-3c2c1
inactive: endpoint: mean survival time, dose: 100.0 mg/kg/injection, schedule: Q04DX003 (ip), vehicle: acetone 97 % of control

COc1ccc(CCNC(=O)Cc2cc(OC)c(OC)cc2[N+](=O)[O-])cc1OC
inactive: [1] 94 % of control | [2] 97 % of control | [3] 94 % of control

Clc1ccc2c(NCc3ccncc3)ccnc2c1
inactive: [7] 96 % of control | [8] 95 % of control | [9] 96 % of control

CC(C)=C(C)c1ccccc1
inactive: [16] 103 % of control | [4] 106 % of control | [5] 103 % of control

COC(=O)CCC(=O)c1ccc(OC)cc1
inactive: endpoint: mean survival time, dose: 100.0 mg/kg/injection, schedule: Q01DX001 (ip), vehicle: alcohol 92 % of control | endpoint: mean survival time, dose: 200.0 mg/kg/injection, schedule: Q01DX001 (ip), vehicle: alcohol 92 % of control | endpoint: mean survival time, dose: 400.0 mg/kg/injection, schedule: Q01DX001 (ip), vehicle: alcohol 101 % of control

O=[N+]([O-])c1ccc2nc3ccscc-3c2c1
inactive: endpoint: mean survival time, dose: 100.0 mg/kg/injection, schedule: Q01DX001 (ip), vehicle: acetone 100 % of control | endpoint: mean survival time, dose: 200.0 mg/kg/injection, schedule: Q01DX001 (ip), vehicle: acetone 100 % of control | endpoint: mean survival time, dose: 400.0 mg/kg/injection, schedule: Q01DX001 (ip), vehicle: acetone 92 % of control

COc1ccc2c(c1)CNC1c3cc(OC)c(O)cc3CC21 (stereo not drawn)
inactive: endpoint: mean survival time, dose: 66.0 mg/kg/injection, schedule: Q04DX003 (ip), vehicle: saline with Tween-80 107 % of control

OCC(O)C(O)C(OC1OC(CO)C(O)C(O)C1O)C(O)CO (stereo not drawn)
inactive: [16] 97 % of control | [4] 109 % of control | [5] 106 % of control

Cc1[nH]c2ccccc2c1C1=CC(=O)c2ccccc2C1=O
inactive: [7] 106 % of control | [8] 104 % of control | [9] 104 % of control

COc1ccc(COC(=O)Nc2ccc([N+](=O)[O-])cc2)cc1
inactive: [13] 96 % of control | [14] 96 % of control | [15] 96 % of control

O=[N+]([O-])c1cccnc1Oc1cccc(C(F)(F)F)c1
inactive: endpoint: mean survival time, dose: 100.0 mg/kg/injection, schedule: Q01DX009 (ip), vehicle: saline 95 % of control | endpoint: mean survival time, dose: 200.0 mg/kg/injection, schedule: Q01DX009 (ip), vehicle: saline 96 % of control | endpoint: mean survival time, dose: 400.0 mg/kg/injection, schedule: Q01DX009 (ip), vehicle: saline 91 % of control

N#CC(c1ccccc1)N(c1ccc(NS(=O)(=O)c2ccccc2)cc1)S(=O)(=O)c1ccccc1 (stereo not drawn)
inactive: [10] 93 % of control | [11] 96 % of control | [12] 89 % of control

CC(C)[CH2][Sn](=[O])[OH]
inactive: [16] 115 % of control | [4] 103 % of control

O=C(O)/C=C/C(=O)Nc1ccc(I)cc1
inactive: [4] 95 % of control | [7] 104 % of control | [5] 111 % of control | [8] 98 % of control | [9] 97 % of control

Nc1ccc2sccc2c1
inactive: [7] 103 % of control | [8] 102 % of control | [9] 101 % of control

O=C1CCCC2c3ccccc3NC12 (stereo not drawn)
inactive: [1] 98 % of control | [2] 102 % of control | [3] 101 % of control

CC1(C)SSC(C)(C)SS1
inactive: [7] 106 % of control | [8] 97 % of control | [9] 103 % of control
